Data taken from publication PMC9181852, “In Vivo and In Vitro Biological Evaluation and Molecular Docking Studies of Compounds Isolated from Micromeria biflora (Buch. Ham. ex D.Don) Benth” (Molecules, 2022).

Experiments:
NCI-H226 = test: Anticancer MTT assay, NCI-H226; format: cell-based; settings: Homo sapiens, 24 h
Protocol: (§1) The MTT assay was used to assess the cytotoxicity of salicylalazine isolated from M. biflora as per the previously documented method. For the MTT assay, Gibco BRL was combined with 100 µg/mL of penicillin sodium salts, 10% FBS (Gibco), and sodium carbonate (2 mg/mL). The prepared medium was used to keep three human cancer cell lines: human hepatoma (HepG2), human A498, and renal NCI-h226 non-small cell lung). Mouse hepatocytes, including HepG2 and HepG-R, were planted in 96-well plates. The cell lines were preserved with salicylalazine (1.5–100 μM), hatched for 24 h, and then they were tracked using the MTT procedure^14. This method was used for all tested cell lines. The IC50 value of salicylalazine in different cell lines was calculated from the concentration-effect curves. The standard drug used in this experiment was paclitaxel.

[1] = Carrageenan-induced paw edema; format: in vivo, mice
Protocol: (§2) Healthy mice (Balb/c) with weight ranging from 20 to 22 g and ages 9 to 10 weeks were used in this screening model. The grown animals were provided with standard laboratory conditions such as standard food and water ad libitum. The in vivo biological screening test was performed at the Department of Veterinary Medicine, College of Agriculture and Veterinary Medicine, Qassim University Buraydah, Saudi Arabia, as well as Swabi University, KP, Pakistan, according to published procedures.
This model was used to identify the anti-inflammatory potency of salicylalazine purified from M. biflora according to the standard method. The animals were randomly distributed into different groups depending on the treatment. Group I was treated with distilled water (10 mL/kg), which acted as a negative control. […] After 30 min of the intraperitoneal subjection of the mentioned administrations, 1% carrageen (0.05 mL) was […] administrated in the right paw of each animal. The inflammation in every animal was recoded after 1–5 h of carrageenan treatment using a plethysmometer (LE 7500 plan lab S.L). The anti-inflammatory action of salicylalazine was measured using the following formula: Activity %=A−B /A×100 where A is the paw edema of the control group, and B is the paw edema of the screening group.

[2] = tested on: LCMK-2 monkey kidney cells; test: Cytotoxicity MTT assay, LCMK-2 monkey kidney cells; format: cell-based
Protocol: (§3) Salicylalazine isolated from M. biflora was also screened for in vitro cytotoxicity using mouse hepatocytes and LCMK-2 monkey kidney cells. According to the MTT assay, salicylalazine was incubated for 24 h and the viability of the cell was identified. In this screening test, the cells were kept in RPMI 1640 medium as per the reported method. The medium used in this experiment consisted of streptomycin sulfate, NaHCO3 solution, and penicillin sodium salt, and FBS in proper proportion. The initial seeding of 8.6 × 10^3 mice hepatocytes and 7.1 × 10^3 LCMK-2 cells was indicated in 96 well plates. The cells were preserved with salicylalazine at different concentrations, and vehicle (0.2% DMSO), and hatching was performed for […] by MTT following our previously reported method.

Hot plate analgesic test = format: in vivo, mice (Balb/c)
Protocol: as §2
The analgesic effect of salicylalazine isolated from M. biflora was obtained with help of a hot plate according to the published method. The animals were distributed into different groups according to the previously reported method. A preliminary screening test was performed on the animals using a hot plate (Harvard apparatus) sustained at 55 ± 2 °C. […] Group I (positive control) was administered with the standard drug, while Group II (negative control) was administered with normal saline. The other groups of animals were administered with 2.5, 5, 10, 15, and 20 mg/kg (PO). […] To avoid tissue damage, a cut-off time of 30 s was used for every animal. The latency time was recorded for all groups (n = 6) at consistent intervals (30, 60, 90, and 120 min).

A498 = test: Anticancer MTT assay, A498; format: cell-based; settings: Homo sapiens, 24 h
Protocol: as §1

[3] = Inclined plane muscle relaxation model; format: in vivo, mice (Balb/c)
Protocol: as §2
An inclined plane screening procedure was adapted to identify the muscle relaxation effects of salicylalazine isolated from M. biflora according to a reported procedure. The inclined plane used in screening contained two plywood boards, and these boards were connected, where one board was at 60 0 from the base while the other one was aligned from the base. Various groups of animals were distributed into several groups; each group comprised six animals (n = 6). Animals in each group were administered water (10 mL/kg), standard drug (diazepam, 1 mg/kg), and salicylalazine at different doses of 2.5, 5, 10, 15, and 20 mg/kg, i.p. After various time intervals, such as 30, 60, and 90 min post-administration, animals were allowed on the higher part of the inclined plane for 30 s to drop or hang.

HepG2 = test: Anticancer MTT assay, HepG2; format: cell-based; settings: Homo sapiens, 24 h
Protocol: as §1

mouse hepatocytes = test: Cytotoxicity MTT assay, mouse hepatocytes; format: cell-based
Protocol: as §3

[4] = Histamine-induced paw edema; format: in vivo, mice
Protocol: as §2
The anti-inflammatory potential of salicylalazine isolated from M. biflora was determined as per our recently published method. The induction of inflammation was completed by administering 0.1 mL histamine (0.5%) to the animal’s sub plantar region. The volume of the paw was recorded 1–5 h after the administration of the inflammatory drug. Then, every group of animals was divided and pretreated orally with salicylalazine (15 and 20 mg/kg) for 1 h before making paw edema. The effect of the drug was related to that of loratadine (standard).

Oc1ccccc1/C=N/N=C/c1ccccc1O [Salicylalazine, salicylalazine]
IC50 (NCI-H226): 64.98 ± 0.11 µM | Attenuation of carrageenan-induced paw edema (maximum) ([1]; 15 mg/kg, after 3 h): 80.98% | Inhibition of carrageenan-induced paw edema (maximum) ([1]; 20 mg/kg, 3 h after carrageenan): 90.22% | Inhibition of carrageenan-induced paw edema ([1]; 20 mg/kg, after 1 h): 45.11% | In vitro cytotoxicity (MTT) [2]: did not exhibit any considerable cytotoxicity | Latency time on hot plate (Hot plate analgesic test; dose 2.5 mg/kg, 30 min): 13.33 ± 0.55 s | Latency time on hot plate (Hot plate analgesic test; dose 2.5 mg/kg, 60 min): 14.40 ± 0.83 s | Latency time on hot plate (Hot plate analgesic test; dose 2.5 mg/kg, 90 min): 14.33 ± 0.64 s | Latency time on hot plate (Hot plate analgesic test; dose 2.5 mg/kg, 120 min): 14.01 ± 0.43 s | Latency time on hot plate (Hot plate analgesic test; dose 5 mg/kg, 30 min): 15.12 ± 0.80 s | Latency time on hot plate (Hot plate analgesic test; dose 5 mg/kg, 60 min): 18.09 ± 0.69 s | Latency time on hot plate (Hot plate analgesic test; dose 5 mg/kg, 90 min): 18.03 ± 0.90 s | Latency time on hot plate (Hot plate analgesic test; dose 5 mg/kg, 120 min): 17.97 ± 1.00 s | Latency time on hot plate (Hot plate analgesic test; dose 10 mg/kg, 30 min): 18.65 ± 0.95 s | Latency time on hot plate (Hot plate analgesic test; dose 10 mg/kg, 60 min): 20.89 ± 0.90 s | Latency time on hot plate (Hot plate analgesic test; dose 10 mg/kg, 90 min): 20.77 ± 0.87 s | Latency time on hot plate (Hot plate analgesic test; dose 10 mg/kg, 120 min): 19.97 ± 0.80 s | Latency time on hot plate (Hot plate analgesic test; dose 15 mg/kg, 30 min): 21.43 ± 0.50 s | Latency time on hot plate (Hot plate analgesic test; dose 15 mg/kg, 60 min): 22.89 ± 0.80 s | Latency time on hot plate (Hot plate analgesic test; dose 15 mg/kg, 90 min): 22.00 ± 0.98 s | Latency time on hot plate (Hot plate analgesic test; dose 15 mg/kg, 120 min): 21.65 ± 0.98 s | Latency time on hot plate (Hot plate analgesic test; dose 20 mg/kg, 30 min): 23.00 ± 0.44 s | Latency time on hot plate (Hot plate analgesic test; dose 20 mg/kg, 60 min): 23.90 ± 0.97 s | Latency time on hot plate (Hot plate analgesic test; dose 20 mg/kg, 90 min): 22.80 ± 1.05 s | Latency time on hot plate (Hot plate analgesic test; dose 20 mg/kg, 120 min): 22.79 ± 1.09 s | IC50 (A498): 115.5 ± 0.42 µM | melting point: 215 to 218 °C | Inclined Plane Test (%) ([3]; dose 2.5 mg/kg i.p., 30 min): 20.11 ± 1.45% | Inclined Plane Test (%) ([3]; dose 2.5 mg/kg i.p., 60 min): 26.23 ± 1.66% | Inclined Plane Test (%) ([3]; dose 2.5 mg/kg i.p., 90 min): 27.45 ± 1.23% | Inclined Plane Test (%) ([3]; dose 5 mg/kg i.p., 30 min): 27.34 ± 1.66% | Inclined Plane Test (%) ([3]; dose 5 mg/kg i.p., 60 min): 33.09 ± 1.60% | Inclined Plane Test (%) ([3]; dose 5 mg/kg i.p., 90 min): 34.09 ± 1.30% | Inclined Plane Test (%) ([3]; dose 10 mg/kg i.p., 30 min): 33.98 ± 1.40% | Inclined Plane Test (%) ([3]; dose 10 mg/kg i.p., 60 min): 38.08 ± 1.55% | Inclined Plane Test (%) ([3]; dose 10 mg/kg i.p., 90 min): 39.43 ± 1.28% | Inclined Plane Test (%) ([3]; dose 15 mg/kg i.p., 30 min): 44.53 ± 1.43% | Inclined Plane Test (%) ([3]; dose 15 mg/kg i.p., 60 min): 50.94 ± 1.50% | Inclined Plane Test (%) ([3]; dose 15 mg/kg i.p., 90 min): 51.52 ± 1.20% | Inclined Plane Test (%) ([3]; dose 20 mg/kg i.p., 30 min): 52.09 ± 1.30% | Inclined Plane Test (%) ([3]; dose 20 mg/kg i.p., 60 min): 59.34 ± 1.45% | Inclined Plane Test (%) ([3]; dose 20 mg/kg i.p., 90 min): 60.88 ± 1.19% | IC50 (HepG2): 20.8 ± 0.38 µM | In vitro cytotoxicity (MTT) (mouse hepatocytes): did not exhibit any considerable cytotoxicity | Effect on histamine-induced paw edema ([4]; 15 mg/kg, 1 h): 78.45% | Effect on histamine-induced paw edema ([4]; 15 mg/kg, 2 h): 74.33% | Effect on histamine-induced paw edema ([4]; 15 mg/kg, 3 h): 58.09% | Effect on histamine-induced paw edema ([4]; 20 mg/kg, 1 h): 90.55% | Effect on histamine-induced paw edema ([4]; 20 mg/kg, 2 h): 93.99% | Effect on histamine-induced paw edema ([4]; 20 mg/kg, 3 h): 86.11%
